Measurements taken from PMC6798376, “Production of galactitol from galactose by the oleaginous yeast Rhodosporidium toruloides IFO0880” (Biotechnology for Biofuels, 2019).

Experiments:
[1] = target: T1, AldR (aldose reductase; also printed AdhR) (Rhodotorula toruloides, UniProt A0A2S9ZVX5); test: spectrophotometric NADPH assay at […] nm; type: biochemical; conditions: 10 mM galactose as co-substrate; 20 mM Tris-HCl pH 7.0; 25 °C
[2] = target: T1, AldR (aldose reductase; also printed AdhR); test: spectrophotometric NADPH assay at […] nm; product galactitol by HPLC; type: biochemical; conditions: NADPH as coenzyme; 10 mM galactose; 20 mM Tris-HCl pH 7.0; 25 °C

T1 sequence (A0A2S9ZVX5 entry or part of it): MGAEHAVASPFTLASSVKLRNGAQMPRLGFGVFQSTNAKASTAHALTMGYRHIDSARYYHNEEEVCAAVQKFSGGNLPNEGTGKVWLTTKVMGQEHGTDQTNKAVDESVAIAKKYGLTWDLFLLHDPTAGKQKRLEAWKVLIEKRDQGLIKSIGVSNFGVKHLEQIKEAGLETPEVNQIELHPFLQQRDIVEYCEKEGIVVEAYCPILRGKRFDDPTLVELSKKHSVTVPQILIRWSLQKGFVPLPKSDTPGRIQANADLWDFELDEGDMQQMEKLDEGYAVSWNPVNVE

| Structure (SMILES) | spectrophotometric NADPH assay at 340 nm [1] | spectrophotometric NADPH assay at 340 nm; product galactitol by HPLC [2] |
| --- | --- | --- |
| NC(=O)C1=CN([C@@H]2O[C@H](COP(=O)(O)OP(=O)(O)OC[C@H]3O[C@@H](n4cnc5c(N)ncnc54)[C@H](OP(=O)(O)O)[C@@H]3O)[C@@H](O)[C@H]2O)C=CC1 [NADPH] | AldR is an NADPH-dependent enzyme, like other galactose reductases | – |
| OC[C@H]1OC(O)[C@H](O)[C@@H](O)[C@H]1O (some centres unmarked) [galactose] | – | The recombinant enzyme exhibited activity against galactose with NADPH as the coenzyme |
